Structures are written as SMILES. Where a chain is given by its changes, count along the chain named.

For assay [1], the target named is T1, AtPPO1 S305L Y426V L479M (SEQ ID NO.131) (Arabidopsis thaliana, UniProt P55826, L479M/S305L/Y426V).
T1 construct: made in house; host or cells: E. coli BL21 (DE3) hemG, crude extract
T1 sequence (P55826 35-537 S305L/Y426V/L479M): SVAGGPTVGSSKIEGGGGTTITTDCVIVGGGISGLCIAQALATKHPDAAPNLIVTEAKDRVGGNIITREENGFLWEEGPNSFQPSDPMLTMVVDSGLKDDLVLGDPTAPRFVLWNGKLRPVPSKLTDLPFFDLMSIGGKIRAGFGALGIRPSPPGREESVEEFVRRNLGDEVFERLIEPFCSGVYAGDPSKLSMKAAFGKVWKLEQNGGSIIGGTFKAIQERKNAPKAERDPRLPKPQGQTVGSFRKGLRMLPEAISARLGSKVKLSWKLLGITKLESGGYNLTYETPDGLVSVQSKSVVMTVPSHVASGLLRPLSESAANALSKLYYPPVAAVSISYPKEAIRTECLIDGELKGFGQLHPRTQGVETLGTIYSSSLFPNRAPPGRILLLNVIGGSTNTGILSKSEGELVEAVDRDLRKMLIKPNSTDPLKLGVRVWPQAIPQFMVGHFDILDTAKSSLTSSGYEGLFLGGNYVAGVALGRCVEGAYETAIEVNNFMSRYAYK
The assay can be described thus: fluorescent Protoporphyrinogen Oxidase assay, crude extract. As to conditions: read-out: percentage inhibition. Type of assay: biochemical. How it is done:
(§1) A pET24 plasmid containing a DNA sequence encoding each identified variant mutant of AtPPO1 derived from Arabidopsis thaliana, codon-optimised for expression in E. coli, and under control of a T7 promoter, was synthesised by Twist Bioscience. This plasmid was expressed in E. coli BL21 (DE3) hemG with 50 μg/mL kanamycin and 25 μg/mL chloramphenicol selection. Overnight cultures grown at 37° C. were used to inoculate 150 ml AIM (AIM-Terrific Broth Base including Trace elements, Formedium) in 500 ml shake flasks at a ratio of 1:100. Cultures were grown at 37° C., 200 rpm for 3 hours and then overnight at 26° C. Cells were harvested by 4° C. centrifugation for 20 minutes at 600 rpm. Cells were stored at −80° C. until extraction. 0.5-1 g of cell pellet from was thawed and resuspended in ratio of 1:1 in lysis buffer (20 mM Tris pH8, 500 mM sodium chloride, 10% glycerol, 1× complete Protease EDTA-free Inhibitor Tablet (Roche)). The resuspension was sonicated at 50% using 10-20 cycles of 10 seconds, 20 seconds off. After sonication Triton X-100 was added to the lysates at a final concentration of 0.5%. The lysates were centrifuged at 13.00 rpm for 10 min at 4° C. The crude extracts (i.e, supernatants) were stored at −80° C. Protein concentration was measured and calculated using the absorbance at 280 nm. Extracts were diluted 1 in 4 and 10 uL was analysed by SDS PAGE.
(§2) Variant crude extracts were assayed in a fluorescent Protoporphyrinogen Oxidase assay in black 384 well plates with a clear bottom. The total volume of the reaction mixture was 100 ul and contained 100 mM K2HPO4 pH7.2, 1 mM Na2EDTA, 5 mM DTT, 20% glycerol (v/v), 0.025% Tween 20 (v/v). Reactions were started with addition of 1 uM protoporphyrinogen IX final assay concentration. Fluorescence was monitored over 30 min using a Tecan plate reader with an excitation wavelength of 405 nm, emission wavelength of 635 nm, gain of 90 and 15 flashes. 10 ul of 3-fold serial dilution of crude extract in 100 mM K2HPO4 pH7.2, 1 mM Na2EDTA, 5 mM DTT, 20% glycerol (v/v), 0.05% Tween 20 (v/v) was tested in the assay against 1% DMSO and 100 ppm herbicide B to determine the correct amount of crude extract to add to the assay to observe activity. 10 ul of the appropriate crude extract dilution was then tested in the fluorescent Protoporphyrinogen Oxidase assay against DMSO and 10-fold dose response of each compound (herbicides A to E) with a top rate of 100 ppm.
(§3) The percentage inhibition was calculated as the activity in the presence of one of four concentrations of each herbicide compound A to E (note that the compounds labelled as A to E are identified hereinabove in the relevant section of the description) as a percentage of the enzyme activity in DMSO (Table 5).

The target in assay [2] is T2, AtPPO1 S305L Y426V (SEQ ID NO.125) (Arabidopsis thaliana, UniProt P55826, S305L/Y426V).
T2 construct: made in house; host or cells: E. coli BL21 (DE3) hemG, crude extract
T2 sequence (P55826 35-537 S305L/Y426V): T1 sequence (P55826 35-537 S305L/Y426V/L479M) with M445L
The description is as above. As to conditions: read-out: percentage inhibition. Type of assay: biochemical. How it is done: as §1, §2, §3

As for `C#CCN1C(=O)C(F)(F)Oc2cc(F)c(-n3c(=O)n(C)c(=S)n(C)c3=O)cc21` [Herbicide B, trifludimoxazin], in assay [1], the inhibition at 0.1 ppm was found to be 99%, the inhibition at 1 ppm was found to be 96%, the inhibition at 10 ppm came out at 100% and the inhibition at 100 ppm was 100%. Also, in assay [2], the inhibition at 0.1 ppm is 87%, the inhibition at 1 ppm turned out to be 99%, the inhibition at 10 ppm was 100% and the inhibition at 100 ppm stood at 100%.

For the molecule `CCOC(=O)C1(C)CC(c2cc(-n3c(=O)cc(C(F)(F)F)n(C)c3=O)c(F)cc2Cl)=NO1` (stereo not shown) [Herbicide C, 3-(2-chloro-4-fluoro-5-(3-methyl-2,6-dioxo-4-trifluoromethyl-3,6-dihydropyrimidin-1(2H)-yl)phenyl)-5-methyl-4,5-dihydroisoxazole-5-carboxylic acid ethyl ester], in assay [1], the inhibition at 0.1 ppm is 28%, the inhibition at 1 ppm turned out to be 59%, the inhibition at 10 ppm was found to be 90% and the inhibition at 100 ppm turned out to be 100%. In addition, in assay [2], the inhibition at 0.1 ppm is 0%, the inhibition at 1 ppm turned out to be 31%, the inhibition at 10 ppm was determined as 81% and the inhibition at 100 ppm was 97%.

In the case of `CCOC(=O)COc1ncccc1Oc1cc(-n2c(=O)cc(C(F)(F)F)n(C)c2=O)c(F)cc1Cl` [Herbicide A, epyrifenacil], in assay [1], the inhibition at 0.1 ppm came to 0%, the inhibition at 1 ppm worked out at 52%, the inhibition at 10 ppm is 87% and the inhibition at 100 ppm worked out at 100%. Besides, in assay [2], the inhibition at 0.1 ppm was 0%, the inhibition at 1 ppm was 11%, the inhibition at 10 ppm was found to be 63% and the inhibition at 100 ppm was 87%.

Take `CCOC(=O)[C@]1(C)CC(c2cc(-n3c(=O)n(C)c(=S)n(C)c3=O)c(F)cc2Cl)=NO1` [Herbicide D, ethyl (5S)-3-[2-chloro-5-(3,5-dimethyl-2,6-dioxo-4-thioxo-1,3,5-triazinan-1-yl)-4-fluoro-phenyl]-5-methyl-4H-isoxazole-5-carboxylate]: in assay [1], the inhibition at 0.1 ppm was 4%, the inhibition at 1 ppm was 46%, the inhibition at 10 ppm was determined as 76% and the inhibition at 100 ppm amounted to 97%. Also, in assay [2], the inhibition at 0.1 ppm came to 0%, the inhibition at 1 ppm is 10%, the inhibition at 10 ppm was found to be 53% and the inhibition at 100 ppm is 83%.

Regarding `CC(C)N(C)S(=O)(=O)NC(=O)c1cc(-n2c(=O)cc(C(F)(F)F)n(C)c2=O)c(F)cc1Cl` [Herbicide E, saflufenacil], in assay [1], the inhibition at 0.1 ppm worked out at 0%, the inhibition at 1 ppm was 28%, the inhibition at 10 ppm was 70% and the inhibition at 100 ppm was found to be 87%. Moreover, in assay [2], the inhibition at 0.1 ppm is 0%, the inhibition at 1 ppm came to 2%, the inhibition at 10 ppm turned out to be 50% and the inhibition at 100 ppm came to 84%.

In general, inhibition refers to how much of the control response was suppressed.

The values are drawn from patent US20260297542A1, “HERBICIDE RESISTANT PLANTS” (SYNGENTA CROP PROTECTION AG, priority 2023, published 2026).
